In the supplement of paper PMC11451515:

Key:
Details in all cases: 48 h
[1] = system: SEM cells; assay: AUC of viability dose-response curve (% viability x log10 dose units); higher = less sensitive
In short: (§1)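 Seeding of medium-adapted leukemia cells was at 500 or 1000 cells/well in 1536-well plates, followed by 48 h at 37°C with library compounds in DMSO at 11 threefold doses from 47 μM to 0.79 nM. CellTiter-Glo One luminescence was normalised per plate to DMSO and cell-free wells and fitted as a four-parameter log-logistic function of log10 dose. Area under the curve was integrated by trapezoidal rule, with curves exceeding full viability scaled and curves failing quality control removed.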

[2] = system: NOMO1; assay: as above
In short: as §1

[3] = system: SEM cells; assay: cell viability relative to DMSO control; higher = less cytotoxic
In short: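 Viability was expressed as a per-plate percentage of DMSO wells, with cell-free wells as background. Leukemia cells (NOMO1 or SEM at 500 cells/well, P12-Ichikawa at 1000 cells/well) were adapted for at least four passages in each medium and seeded in 1536-well plates (5 μl). Library compounds in DMSO were pin-dosed over an 11-point threefold series from 47 μM to 0.79 nM, and CellTiter-Glo One luminescence was read after 48 h at 37°C.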

[4] = system: P12-Ichikawa; assay: AUC of viability dose-response curve (% viability x log10 dose units); higher = less sensitive
In short: as §1

[5] = RPMI 5 mM glucose + 10% dialyzed FBS
[6] = HPLM + 10% dialyzed FBS, 0.000781 µM
[7] = HPLM + 10% dialyzed FBS, 0.00234 µM
[8] = HPLM + 10% dialyzed FBS, 0.00702 µM
[9] = HPLM + 10% dialyzed FBS, 0.0211 µM
[10] = HPLM + 10% dialyzed FBS, 0.0632 µM
[11] = HPLM + 10% dialyzed FBS, 0.19 µM
[12] = HPLM + 10% dialyzed FBS, 0.569 µM
[13] = HPLM + 10% dialyzed FBS, 1.71 µM
[14] = HPLM + 10% dialyzed FBS, 5.12 µM
[15] = HPLM + 10% dialyzed FBS, 15.4 µM
[16] = HPLM + 10% dialyzed FBS, 46.1 µM
[17] = RPMI 5 mM glucose + 10% FBS, 0.000781 µM
[18] = RPMI 5 mM glucose + 10% FBS, 0.00234 µM
[19] = RPMI 5 mM glucose + 10% FBS, 0.00702 µM
[20] = RPMI 5 mM glucose + 10% FBS, 0.0211 µM
[21] = RPMI 5 mM glucose + 10% FBS, 0.0632 µM
[22] = RPMI 5 mM glucose + 10% FBS, 0.19 µM
[23] = RPMI 5 mM glucose + 10% FBS, 0.569 µM
[24] = RPMI 5 mM glucose + 10% FBS, 1.71 µM
[25] = RPMI 5 mM glucose + 10% FBS, 5.12 µM
[26] = RPMI 5 mM glucose + 10% FBS, 15.4 µM
[27] = RPMI 5 mM glucose + 10% FBS, 46.1 µM

| Compound | AUC of viability dose-response curve ([1]; HPLM + 10% dialyzed FBS) | AUC of viability dose-response curve ([1]; RPMI 5 mM glucose + 10% FBS) | AUC of viability dose-response curve [1, 5] | AUC of viability dose-response curve ([2]; HPLM + 10% dialyzed FBS) | AUC of viability dose-response curve ([2]; RPMI 5 mM glucose + 10% FBS) | AUC of viability dose-response curve [2, 5] | cell viability [3, 6] | cell viability [3, 7] | cell viability [3, 8] | cell viability [3, 9] | cell viability [3, 10] | cell viability [3, 11] | cell viability [3, 12] | cell viability [3, 13] | cell viability [3, 14] | cell viability [3, 15] | cell viability [3, 16] | cell viability [3, 17] | cell viability [3, 18] | cell viability [3, 19] | cell viability [3, 20] | cell viability [3, 21] | cell viability [3, 22] | cell viability [3, 23] | cell viability [3, 24] | cell viability [3, 25] | cell viability [3, 26] | cell viability [3, 27] | AUC of viability dose-response curve ([4]; HPLM + 10% dialyzed FBS) | AUC of viability dose-response curve ([4]; RPMI 5 mM glucose + 10% FBS) | AUC of viability dose-response curve [4, 5] |
| --- | --- | --- | --- | --- | --- | --- | --- | --- | --- | --- | --- | --- | --- | --- | --- | --- | --- | --- | --- | --- | --- | --- | --- | --- | --- | --- | --- | --- | --- | --- | --- |
| COc1nc(C)cnc1N[S+](=O)([O-])c1cccnc1-c1ccc(-c2nnco2)cc1 | 471 | 452 | 460 | 465 | 455 | 474 | – | – | – | – | – | – | – | – | – | – | – | – | – | – | – | – | – | – | – | – | – | – | – | – | – |
| Nc1ncnc2c1c(-c1cccc(OCc3ccccc3)c1)cn2[C@H]1C[C@@H](CN2CCC2)C1 | 437 | 456 | 436 | 433 | 459 | 450 | 103% | 125% | 119% | 123% | 117% | 126% | 109% | 114% | 96.4% | 75.3% | 62.9% | 110% | 115% | 121% | 107% | 112% | 107% | 123% | 117% | 111% | 91.3% | 64.4% | 458 | 465 | 467 |
| OC1=CC=C(C=C1)\C2=C(O)\C(=O)C3=C(O2)C=C(O)C=C3O | 466 | 469 | 470 | 443 | 458 | 466 | – | – | – | – | – | – | – | – | – | – | – | 119% | 100% | 116% | 127% | 127% | 133% | 135% | 128% | 127% | 123% | 87.2% | 465 | 437 | 449 |
| c1nc2c(NC3CCCCC3)nc(Nc3ccc(N4CCOCC4)cc3)nc2[nH]1 | 386 | 364 | 363 | 403 | 399 | 405 | 121% | 118% | 114% | 120% | 131% | 116% | 120% | 112% | 36.8% | 28.4% | 29.3% | 110% | 113% | 132% | 121% | 120% | 131% | 111% | 95.9% | 20.5% | 13.7% | 14.4% | 377 | 364 | 384 |
| Cc1ccc2c(=O)c3cccc(CC(=O)O)c3oc2c1C | 447 | 440 | 449 | 435 | 471 | 429 | – | – | – | – | – | – | – | – | – | – | – | – | – | – | – | – | – | – | – | – | – | – | 471 | 464 | 460 |
| O=C(N[C@H](CO)[C@H](O)c1ccc([N+](=O)[O-])cc1)C(Cl)Cl | 474 | 475 | 475 | 477 | 467 | 467 | 115% | 119% | 125% | 121% | 126% | 125% | 128% | 132% | 128% | 118% | 113% | – | – | – | – | – | – | – | – | – | – | – | 471 | 466 | 462 |
| COC1=CC=C2[C@H]3CC[C@]4(C)[C@H](CC[C@H]4[C@@H]3CCC2=C1)NCCCCCCN5C(=O)\C=C/C5=O | 472 | 459 | 408 | 434 | 444 | 462 | – | – | – | – | – | – | – | – | – | – | – | – | – | – | – | – | – | – | – | – | – | – | 456 | 448 | 444 |
| CCN[C@H]1C[C@H](C)[S+](=O)([O-])c2sc([S+](N)(=O)[O-])cc21 | – | – | – | 434 | 452 | 415 | 137% | 100% | 120% | 126% | 36.4% | 129% | 135% | 126% | 52.8% | 131% | 118% | – | – | – | – | – | – | – | – | – | – | – | 460 | 440 | 471 |
| Cc1cc(Nc2cc(N3CCN(C)CC3)nc(Sc3ccc(NC(=O)C4CC4)cc3)n2)[nH]n1 | 304 | 286 | 286 | 389 | 390 | 376 | – | – | – | – | – | – | – | – | – | – | – | – | – | – | – | – | – | – | – | – | – | – | 298 | 302 | 315 |
| ClC/1=C(NCCN2CCOCC2)/C(=O)C3=C(C=CC=N3)C1=O | 410 | 381 | 392 | 416 | 410 | 406 | 104% | 105% | 121% | 118% | 131% | 127% | 127% | 115% | 95.4% | 35.8% | 4.66% | – | – | – | – | – | – | – | – | – | – | – | 450 | 445 | 438 |
| C=CC(=O)Nc1cc(NC(=O)c2ccc(C)c(NC(=O)c3ccno3)c2)cc(C(F)(F)F)c1 | 423 | 451 | 438 | 431 | 457 | 467 | – | – | – | – | – | – | – | – | – | – | – | – | – | – | – | – | – | – | – | – | – | – | 459 | 454 | 452 |
